{"source": "patent US20260262643A1", "about": "“HERBICIDAL BENZOXAZINES” (FMC CORPORATION, priority 2022, published 2026)", "key": {"[1]": {"system": "ryegrass, Italian", "assay": "Test A postemergence", "format": "in vivo, Lolium multiflorum", "details": "postemergence, 10 days", "method_in_brief": "(§1)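 Plants were grown in loam and sand and treated preemergence or postemergence (one- to two-leaf stage, 2–10 cm) with compound in solvent plus surfactant. Response was scored against untreated controls after 10 greenhouse days, where 0 means no effect and 100 complete control.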"}, "[2]": {"system": "ragweed", "assay": "Test A preemergence", "format": "in vivo, Ambrosia artemisiifolia", "method_in_brief": "as §1"}, "[3]": {"system": "horseweed", "assay": "Test A postemergence", "format": "in vivo, Erigeron canadensis", "details": "postemergence, 10 days", "method_in_brief": "as §1"}, "[4]": {"system": "ducksalad", "assay": "Test B flooded paddy test", "format": "in vivo, Heteranthera limosa", "details": "250 g ai/ha, Flood, 13 days, 0 to 100 scale (0 no effect, 100 complete control)", "method_in_brief": "(§2)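 Species grown to 2-leaf stage; pots flooded 3 cm above soil and compound applied directly to paddy water, depth maintained throughout. After 13 days in greenhouse, plants visually rated against controls on 0–100 scale (0 no effect, 100 complete control); dash means no result.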"}, "[5]": {"system": "soybean", "assay": "Test A postemergence", "format": "in vivo, Glycine max", "details": "postemergence, 10 days", "method_in_brief": "as §1"}, "[6]": {"system": "ragweed", "assay": "Test A postemergence", "format": "in vivo, Ambrosia artemisiifolia", "details": "postemergence, 10 days", "method_in_brief": "as §1"}, "[7]": {"system": "foxtail, giant", "assay": "Test A postemergence", "format": "in vivo, Setaria faberi", "details": "postemergence, 10 days", "method_in_brief": "as §1"}, "[8]": {"system": "blackgrass", "assay": "Test A preemergence", "format": "in vivo, Alopecurus myosuroides", "method_in_brief": "as §1"}, "[9]": {"system": "sedge, umbrella", "assay": "Test B flooded paddy test", "format": "in vivo, Cyperus difformis", "details": "250 g ai/ha, Flood, 13 days, 0 to 100 scale (0 no effect, 100 complete control)", "method_in_brief": "as §2"}, "[10]": {"system": "goosegrass", "assay": "Test A postemergence", "format": "in vivo, Eleusine indica", "details": "postemergence, 10 days", "method_in_brief": "as §1"}, "[11]": {"system": "pigweed, palmer", "assay": "Test A preemergence", "format": "in vivo, Amaranthus palmeri", "method_in_brief": "as §1"}, "[12]": {"system": "kochia", "assay": "Test A postemergence", "format": "in vivo, Bassia scoparia", "details": "postemergence, 10 days", "method_in_brief": "as §1"}, "[13]": {"system": "foxtail, giant", "assay": "Test A preemergence", "format": "in vivo, Setaria faberi", "method_in_brief": "as §1"}, "[14]": {"system": "oat, wild", "assay": "Test A postemergence", "format": "in vivo, Avena fatua", "details": "postemergence, 10 days", "method_in_brief": "as §1"}, "[15]": {"system": "corn", "assay": "Test A preemergence", "format": "in vivo, Zea mays", "method_in_brief": "as §1"}, "[16]": {"system": "oat, wild", "assay": "Test A preemergence", "format": "in vivo, Avena fatua", "method_in_brief": "as §1"}, "[17]": {"system": "pigweed, palmer", "assay": "Test A postemergence", "format": "in vivo, Amaranthus palmeri", "details": "postemergence, 10 days", "method_in_brief": "as §1"}, "[18]": {"system": "rice", "assay": "Test B flooded paddy test", "format": "in vivo, Oryza sativa", "details": "250 g ai/ha, Flood, 13 days, 0 to 100 scale (0 no effect, 100 complete control)", "method_in_brief": "as §2"}, "[19]": {"system": "ryegrass, Italian", "assay": "Test A preemergence", "format": "in vivo, Lolium multiflorum", "method_in_brief": "as §1"}, "[20]": {"system": "goosegrass", "assay": "Test A preemergence", "format": "in vivo, Eleusine indica", "method_in_brief": "as §1"}, "[21]": {"system": "blackgrass", "assay": "Test A postemergence", "format": "in vivo, Alopecurus myosuroides", "details": "postemergence, 10 days", "method_in_brief": "as §1"}, "[22]": {"system": "kochia", "assay": "Test A preemergence", "format": "in vivo, Bassia scoparia", "method_in_brief": "as §1"}, "[23]": {"system": "corn", "assay": "Test A postemergence", "format": "in vivo, Zea mays", "details": "postemergence, 10 days", "method_in_brief": "as §1"}, "[24]": {"system": "soybean", "assay": "Test A preemergence", "format": "in vivo, Glycine max", "method_in_brief": "as §1"}, "[25]": {"system": "wheat", "assay": "Test A preemergence", "format": "in vivo, Triticum aestivum", "method_in_brief": "as §1"}, "[26]": {"system": "wheat", "assay": "Test A postemergence", "format": "in vivo, Triticum aestivum", "details": "postemergence, 10 days", "method_in_brief": "as §1"}, "[27]": {"system": "barnyardgrass", "assay": "Test B flooded paddy test", "format": "in vivo, Echinochloa crus-galli", "details": "250 g ai/ha, Flood, 13 days, 0 to 100 scale (0 no effect, 100 complete control)", "method_in_brief": "as §2"}, "[28]": {"system": "galium", "assay": "Test A postemergence", "format": "in vivo, Galium aparine", "details": "postemergence, 10 days", "method_in_brief": "as §1"}, "[29]": {"details": "125 g ai/ha, 0 to 100 scale, 0 no effect, 100 complete control"}, "[30]": {"details": "500 g ai/ha, visual injury, 0 to 100 scale (0 no effect, 100 complete control)"}, "[31]": {"details": "125 g ai/ha, visual injury after 10 days, 0 to 100 scale, 0 is no effect, 100 is complete control"}, "[32]": {"details": "500 g ai/ha, 0 to 100 scale (0 no effect, 100 complete control), 10 days"}}, "data": [{"smiles": "CC(C)Oc1ccc(-n2cnc(C(C)C)n2)cc1C(=O)N1C[C@H](C)Oc2c(Cl)cccc21", "note": "[Compound 108]", "values": [{"measurement": "Ryegrass, Italian plant response rating", "setting": "[1]; [29]", "result": 20}, {"measurement": "Plant response rating, Ryegrass, Italian", "setting": "[1]; [30]", "result": 40}, {"measurement": "Plant response rating, Ragweed", "setting": "[2]; [31]", "result": 30}, {"measurement": "Plant response rating, Ragweed", "setting": "[2]; [32]", "result": 90}, {"measurement": "Horseweed plant response rating", "setting": "[3]; [29]", "result": 10}, {"measurement": "Plant response rating, Horseweed", "setting": "[3]; [30]", "result": 20}, {"measurement": "Plant response rating, Ducksalad", "setting": "[4]", "result": 20}, {"measurement": "Soybean plant response rating", "setting": "[5]; [29]", "result": 100}, {"measurement": "Plant response rating, Soybean", "setting": "[5]; [30]", "result": 100}, {"measurement": "Ragweed plant response rating", "setting": "[6]; [29]", "result": 60}, {"measurement": "Plant response rating, Ragweed", "setting": "[6]; [30]", "result": 60}, {"measurement": "Foxtail, Giant plant response rating", "setting": "[7]; [29]", "result": 70}, {"measurement": "Plant response rating, Foxtail, Giant", "setting": "[7]; [30]", "result": 90}, {"measurement": "Plant response rating, Blackgrass", "setting": "[8]; [31]", "result": 0}, {"measurement": "Plant response rating, Blackgrass", "setting": "[8]; [32]", "result": 40}, {"measurement": "Plant response rating, Sedge, Umbrella", "setting": "[9]", "result": 80}, {"measurement": "Goosegrass plant response rating", "setting": "[10]; [29]", "result": 80}, {"measurement": "Plant response rating, Goosegrass", "setting": "[10]; [30]", "result": 90}, {"measurement": "Plant response rating, Pigweed, Palmer", "setting": "[11]; [31]", "result": 100}, {"measurement": "Plant response rating, Pigweed, Palmer", "setting": "[11]; [32]", "result": 100}, {"measurement": "Kochia plant response rating", "setting": "[12]; [29]", "result": 70}, {"measurement": "Plant response rating, Kochia", "setting": "[12]; [30]", "result": 90}, {"measurement": "Plant response rating, Foxtail, Giant", "setting": "[13]; [31]", "result": 90}, {"measurement": "Plant response rating, Foxtail, Giant", "setting": "[13]; [32]", "result": 100}, {"measurement": "Oat, Wild plant response rating", "setting": "[14]; [29]", "result": 20}, {"measurement": "Plant response rating, Oat, Wild", "setting": "[14]; [30]", "result": 70}, {"measurement": "Plant response rating, Corn", "setting": "[15]; [31]", "result": 0}, {"measurement": "Plant response rating, Corn", "setting": "[15]; [32]", "result": 30}, {"measurement": "Plant response rating, Oat, Wild", "setting": "[16]; [31]", "result": 30}, {"measurement": "Plant response rating, Oat, Wild", "setting": "[16]; [32]", "result": 30}, {"measurement": "Pigweed, Palmer plant response rating", "setting": "[17]; [29]", "result": 70}, {"measurement": "Plant response rating, Pigweed, Palmer", "setting": "[17]; [30]", "result": 70}, {"measurement": "Plant response rating, Rice", "setting": "[18]", "result": 10}, {"measurement": "Plant response rating, Ryegrass, Italian", "setting": "[19]; [31]", "result": 80}, {"measurement": "Plant response rating, Ryegrass, Italian", "setting": "[19]; [32]", "result": 100}, {"measurement": "Plant response rating, Goosegrass", "setting": "[20]; [31]", "result": 100}, {"measurement": "Plant response rating, Goosegrass", "setting": "[20]; [32]", "result": 100}, {"measurement": "Blackgrass plant response rating", "setting": "[21]; [29]", "result": 30}, {"measurement": "Plant response rating, Blackgrass", "setting": "[21]; [30]", "result": 30}, {"measurement": "Plant response rating, Kochia", "setting": "[22]; [31]", "result": 0}, {"measurement": "Plant response rating, Kochia", "setting": "[22]; [32]", "result": 80}, {"measurement": "Corn plant response rating", "setting": "[23]; [29]", "result": 40}, {"measurement": "Plant response rating, Corn", "setting": "[23]; [30]", "result": 60}, {"measurement": "Plant response rating, Soybean", "setting": "[24]; [31]", "result": 50}, {"measurement": "Plant response rating, Soybean", "setting": "[24]; [32]", "result": 100}, {"measurement": "Plant response rating, Wheat", "setting": "[25]; [31]", "result": 30}, {"measurement": "Plant response rating, Wheat", "setting": "[25]; [32]", "result": 40}, {"measurement": "Wheat plant response rating", "setting": "[26]; [29]", "result": 10}, {"measurement": "Plant response rating, Wheat", "setting": "[26]; [30]", "result": 30}, {"measurement": "Plant response rating, Barnyardgrass", "setting": "[27]", "result": 55}, {"measurement": "Galium plant response rating", "setting": "[28]; [29]", "result": 80}, {"measurement": "Plant response rating, Galium", "setting": "[28]; [30]", "result": 90}]}]}
